Assays:
[1] = tested on: D1 and D2 receptors; assay: D1:D2 selectivity from receptor binding
Description: (§1) Frozen rat striata was homogenized by seven manual strokes in a Wheaton Teflon-glass homogenizer in 8 ml ice cold 50 mM HEPES buffer with 4.0 mM MgCl2, (pH 7.4). The tissue was centrifuged at 27,000×g for 10 min, the supernatant was discarded, and the pellet was homogenized (5 strokes) and resuspended in ice cold buffer and centrifuged again. The final pellet was suspended at a concentration of approximately 2.0 mg wet weight/ml. The amount of tissue added to each assay tube was 1.0 mg, in a final assay volume of 1.0 ml. D1 receptors were labeled with [^3H] SCH23390 (0.30 nM). D2 receptors were labeled with [^3H] spiperone (0.07 nM); unlabeled ketanserin (50 nM) was added to mask binding to 5HT2 sites. Total binding was defined as radioligand bound in the absence of any competing drug. Nonspecific binding was estimated by adding unlabeled SCH23390 (1 μM) or unlabeled chlorpromazine ([…]) for D1 and D2 receptor binding assays, respectively. Triplicate determinations were made for each drug concentration in each assay. Assay tubes were incubated at 37° C. for 15 minutes. Binding was terminated by filtering with ice cold buffer on a Skatron 12 well cell harvester (Skatron, Inc., Sterling, Va.) using glass fiber filter mats (Skatron no. 7034). […] After shaking for 30 minutes, radioactivity was determined on a LKB Wallac 1219 RackBeta liquid scintillation counter (Wallac, Gaithersburg, Md.). […]

[2] = target: T1, cloned human D4 receptor (Homo sapiens, UniProt P21917); assay: Radioreceptor binding, cloned human D4 receptor; conditions: read-out: K0.5 at the cloned human D4 receptor
T1 construct: expressed in transfected cells; host or cells: not specified (e.g. C-6 glioma or CHO cells)
T1 sequence (P21917 1-419): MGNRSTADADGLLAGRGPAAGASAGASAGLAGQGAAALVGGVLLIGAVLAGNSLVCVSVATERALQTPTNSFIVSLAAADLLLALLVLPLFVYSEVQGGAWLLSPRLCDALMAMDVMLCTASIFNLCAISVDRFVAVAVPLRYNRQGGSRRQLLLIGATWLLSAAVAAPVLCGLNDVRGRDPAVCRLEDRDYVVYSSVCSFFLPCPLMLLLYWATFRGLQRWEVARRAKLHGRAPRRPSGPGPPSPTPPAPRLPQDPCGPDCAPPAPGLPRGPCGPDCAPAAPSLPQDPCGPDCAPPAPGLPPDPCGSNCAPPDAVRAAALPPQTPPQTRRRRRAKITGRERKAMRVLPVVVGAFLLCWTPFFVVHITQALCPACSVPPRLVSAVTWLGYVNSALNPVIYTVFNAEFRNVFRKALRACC
Description: Cells were grown in appropriate medium, and at confluency, harvested for membrane preparation. Flasks of cells in the same passage were scraped using a rubber policeman and collected in 50 ml centrifuge tubes. These were spun for 10 min at 1200×g, to pellet whole cells. The supernatant was discarded and then five ml of PBS (phosphate buffered saline)/flask was added to the centrifuge tubes to resuspend the cells. The tubes were then centrifuged again for min at 28,500×g. The PBS was removed and the pellet suspended in a solution of 10% DMSO in PBS. Cells were homogenized with a polytron for 10 seconds on setting 5. One ml aliquots were stored at −80° C. until use in receptor binding studies. Aliquots contained approximately 1 mg/ml of protein, as measured using the BCA protein assay reagent (Pierce, Rockford, Ill.). […]

[3] = tested on: MPTP-treated monkey model; conditions: cited from earlier work
[4] = target: T2, D1 receptors (Macaca mulatta, UniProt O77680); assay: cAMP production in C-6-mD1 cells (cloned expressed primate D1A receptors); type: cell-based; conditions: for agonist intrinsic activity at D1 receptors: C-6-mD1 cells / cloned expressed primate D1A receptors, relative to dopamine
T2 construct: expressed in transfected cells; host or cells: C-6 glioma cells (C-6-mD1)
T2 sequence (O77680 whole entry): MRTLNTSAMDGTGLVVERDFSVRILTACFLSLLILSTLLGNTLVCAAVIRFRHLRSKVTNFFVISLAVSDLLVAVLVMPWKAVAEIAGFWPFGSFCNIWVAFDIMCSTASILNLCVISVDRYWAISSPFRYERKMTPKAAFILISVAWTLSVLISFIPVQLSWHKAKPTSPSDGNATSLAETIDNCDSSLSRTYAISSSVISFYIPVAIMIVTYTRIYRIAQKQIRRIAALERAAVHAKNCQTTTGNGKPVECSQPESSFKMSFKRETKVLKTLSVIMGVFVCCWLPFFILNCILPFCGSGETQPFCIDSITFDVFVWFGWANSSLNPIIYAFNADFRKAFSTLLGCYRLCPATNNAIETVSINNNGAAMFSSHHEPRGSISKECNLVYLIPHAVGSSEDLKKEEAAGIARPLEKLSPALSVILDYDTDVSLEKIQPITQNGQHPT
Description: Radioreceptor and function studies were also conducted for cloned human or monkey receptors transfected into one of several cell lines [e.g., C-6 glioma or Chinese hamster ovary (CHO) cells]. Cells were grown in appropriate medium, and at confluency, harvested for membrane preparation. Flasks of cells in the same passage were scraped using a rubber policeman and collected in 50 ml centrifuge tubes. These were spun for 10 min at 1200×g, to pellet whole cells. The supernatant was discarded and then five ml of PBS (phosphate buffered saline)/flask was added to the centrifuge tubes to resuspend the cells. The tubes were then centrifuged again for […] at 28,500×g. The PBS was removed and the pellet suspended in a solution of 10% DMSO in PBS. Cells were homogenized with a polytron for 10 seconds on setting 5. One ml aliquots were stored at −80° C. until use in receptor binding studies. Aliquots contained approximately 1 mg/ml of protein, as measured using the BCA protein assay reagent (Pierce, Rockford, Ill.). Agonist intrinsic activity was assessed by the ability of selected compounds to stimulate adenylate cyclase, as measured by cAMP formation in whole cells. In C-6 cells, for example, the dose response curve for each drug was fit using a sigmoid function to determine maximal effective concentration (top plateau of curve) as well as EC50s. All drugs were run in the same assay in order to decrease variability across cell passages. Confluent plates of cells were incubated with drugs dissolved in DMEM-H plain media supplemented with 20 mM Hepes, 0.01% ascorbic acid and 500 μM iso-butyl-methyl xanthine (IBMX; pH 7.2; media A). The final volume for each well was 500 μl. In addition to the dose response curves run for each drug, basal levels of cAMP and isoproterenol-stimulated (through endogenous β2 receptors, positive control) cAMP levels were evaluated for each plate. Each condition was run in duplicate wells. Following a 10 min incubation at 37° C., cells were rinsed briefly with media, and the reaction stopped with the addition of 500 μl 0.1 N HCl. Cells were then allowed to chill for 5-10 min at 4° C., the wells were scraped and the volume placed into 1.7 ml centrifuge tubes. An additional 1 ml of 0.1 N HCl was added to each tube, for a final volume of 1.5 ml/tube. Tubes were vortexed briefly, and then spun in a BHG Hermle Z 230 M microcentrifuge for five min at 15,000×g to eliminate large cellular particles. Cyclic AMP levels for each sample were determined as described above. Data were calculated for each sample, and expressed initially as pmol/mg/min cAMP. […] Normalized dose-response curves were analyzed by nonlinear regression using an algorithm for sigmoid curves in the curvefitting program InPlot (Graphpad, Inc.; San Francisco, Calif.). […]

[5] = target: T3, D1 receptors (Rattus norvegicus, UniProt P18901); assay: cAMP production in rat striatum homogenate; type: biochemical; conditions: for agonist intrinsic activity at D1 receptors: rat striatum / rat striatal membranes, relative to dopamine
T3 construct: Frozen rat striata was homogenized by seven manual strokes; from tissue; host or cells: rat striatum
T3 sequence (P18901 whole entry): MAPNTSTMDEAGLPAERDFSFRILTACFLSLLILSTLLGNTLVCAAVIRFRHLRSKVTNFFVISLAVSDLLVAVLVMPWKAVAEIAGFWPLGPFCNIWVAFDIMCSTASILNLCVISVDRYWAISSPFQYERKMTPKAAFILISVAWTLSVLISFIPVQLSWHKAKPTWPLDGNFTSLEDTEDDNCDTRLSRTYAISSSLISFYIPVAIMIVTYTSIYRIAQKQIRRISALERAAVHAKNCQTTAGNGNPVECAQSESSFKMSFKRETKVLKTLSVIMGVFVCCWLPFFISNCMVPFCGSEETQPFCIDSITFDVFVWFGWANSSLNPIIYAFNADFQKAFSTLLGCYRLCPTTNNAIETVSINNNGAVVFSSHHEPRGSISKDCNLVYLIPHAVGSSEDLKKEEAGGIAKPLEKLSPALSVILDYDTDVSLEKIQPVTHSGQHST
Description: Frozen striatal tissue (ca. 40 mg) was homogenized in 4 ml of buffer (5 mM Hepes, 2 mM EGTA, pH 7.5) using 10 strokes in a Wheaton Teflon-glass homogenizer. Four ml of 50 mM Hepes with 2 mM EGTA buffer (pH 7.5) was added, and the tissue was homogenized by an additional 3 strokes. A 20 μl aliquot of this tissue homogenate was added to a prepared reaction. The reaction mixture consisted of 100 mM Hepes (pH 7.4), 100 mM NaCl, 4 mM MgCl2, 2 mM EDTA, 500 μM isobutyl methylxanthine (IBMX), 0.01% ascorbic acid, 10 μM pargyline, 2 mM ATP, 5 μM GTP, 20 mM phosphocreatine, 5 units of creatine phosphokinase (CPK), and selected concentrations of DA. The final reaction volume was 100 μl. Basal cAMP activity was determined by incubation of tissue in the reaction mixture with no drug added. Tubes were assayed in duplicate. After a 15 min incubation at 30° C., the reaction was stopped with the addition of 500 μl of 0.1 N HCl. Tubes were vortexed briefly, and then spun in a BHG Hermle Z 230 M microcentrifuge for five min at 15,000×g to eliminate large particles. The concentration of cAMP in each sample was determined with an RIA of acetylated cAMP, modified from that previously described (Harper and Brooker, 1975). Iodination of cAMP was performed using a method described previously (Patel and Linden, 1988). Assay buffer was 50 mM sodium acetate buffer with 0.1% sodium azide (pH 4.75). Standard curves of cAMP were prepared in buffer at concentrations of 2 to 500 fmoles/assay tube. To improve assay sensitivity, all samples and standards were acetylated with 10 μl of a 2:1 solution of triethylamine:acetic anhydride. Samples were assayed in duplicate. Each assay tube contained 100 μl of diluted sample, 100 μl of primary antibody (sheep, anti-cAMP, 1:100,000 dilution with 1% BSA in buffer) and 100 μl of [^125I]-cAMP (50,000 dpm/100 μl of buffer); total assay volume was 300 μl. Tubes were vortexed and stored at 4° C. overnight (approx. 18 hr). Antibody-bound radioactivity was then separated by the addition of 25 μL of BioMag rabbit, anti-goat IgG (Advanced Magnetics, Cambridge Mass.), followed by vortexing and further incubation at 4° C. for 1 hr. To these samples 1 ml of 12% polyethylene glycol/50 mM sodium acetate buffer (pH 6.75) was added and all tubes were centrifuged at 1700×g for 10 min. Supernatants were aspirated and radioactivity in the resulting pellet was determined using an LKB Wallac gamma counter (Gaithersburg, Md.). Data were calculated for each sample, and expressed initially as pmol/mg/min cAMP. […] Normalized dose-response curves were analyzed by nonlinear regression using an algorithm for sigmoid curves in the curvefitting program InPlot (Graphpad, Inc.; San Francisco, Calif.). […]

[6] = tested on: D2-like receptors; assay: Functional selectivity at D2-like receptors in rats (in vivo or in vitro); design: species or system rat
[7] = target: T4, rat striatal D1 receptors (Rattus norvegicus, UniProt P18901); assay: Radioreceptor binding, rat striatal D1 receptors labeled with [3H]SCH23390
T4 construct: Frozen rat striata was homogenized by seven manual strokes; from tissue; host or cells: rat striatum
T4 sequence (P18901 whole entry): as above
Description: FIG. 1 is a graphic representation of the affinity of dinoxyline (circles), dinapsoline (diamonds) and (+)-SCH23390 (solid circles) for striatal D1 receptors. Rat striatal D1 receptors were labeled with [^3H]SCH23390 (1), and unlabeled dinoxyline, dinapsoline, or (+)-SCH23390 was added to determine the specific binding of each compound to the D1 receptor.
Frozen rat striata was homogenized by seven manual strokes in a Wheaton Teflon-glass homogenizer in 8 ml ice cold 50 mM HEPES buffer with 4.0 mM MgCl2, (pH 7.4). The tissue was centrifuged at 27,000×g for 10 min, the supernatant was discarded, and the pellet was homogenized (5 strokes) and resuspended in ice cold buffer and centrifuged again. The final pellet was suspended at a concentration of approximately 2.0 mg wet weight/ml. The amount of tissue added to each assay tube was 1.0 mg, in a final assay volume of 1.0 ml. D1 receptors were labeled with [^3H] SCH23390 (0.30 nM). D2 receptors were labeled with [^3H] spiperone (0.07 nM); unlabeled ketanserin (50 nM) was added to mask binding to 5HT2 sites. Total binding was defined as radioligand bound in the absence of any competing drug. Nonspecific binding was estimated by adding unlabeled SCH23390 (1 μM) or unlabeled chlorpromazine ([…]) for D1 and D2 receptor binding assays, respectively. Triplicate determinations were made for each drug concentration in each assay. Assay tubes were incubated at 37° C. for 15 minutes. Binding was terminated by filtering with ice cold buffer on a Skatron 12 well cell harvester (Skatron, Inc., Sterling, Va.) using glass fiber filter mats (Skatron no. 7034). Filters were allowed to dry and 2.0 ml of Optiphase HI-SAF II scintillation fluid was added. After shaking for 30 minutes, radioactivity was determined on a LKB Wallac 1219 RackBeta liquid scintillation counter (Wallac, Gaithersburg, Md.). Tissue protein levels were estimated using the BCA protein assay reagent.

[8] = tested on: marmosets having moderately-severe MPTP-induced dopamine denervation; assay: Marmosets with moderately-severe MPTP-induced dopamine denervation; type: in vivo, marmoset; conditions: preliminary studies
From the text: (§2) Accordingly dinoxyline and its derivatives have potential clinical utility in Parkinson's Disease and in other conditions where perturbation of dopamine receptors may be therapeutic.

[9] = tested on: rat unilateral 6-OHDA-lesion model; assay: Rat unilateral 6-OHDA-lesion model, contralateral rotation; type: in vivo
From the text: as §2

[10] = tested on: striatal D2 receptors; assay: Radioreceptor binding, striatal D2 receptors labeled with [3H]spiperone; design: species or system rat; conditions: compared with dihydrexidine
Description: FIG. 3 is a graphic representation of the affinity of dinoxyline (circles), dinapsoline (diamonds), and chlorpromazine for striatal D2 receptors labeled with [^3H]spiperone. Unlabeled dinoxyline, dinapsoline, or chlorpromazine was added to determine the specific binding of each compound to the D2 receptor.
as §1, with “respectively.” for “respectively. Triplicate determinations were made for each drug concentration in each assay. Assay tubes were incubated at 37° C. for 15 minutes. Binding was terminated by filtering with ice cold buffer on a Skatron 12 well cell harvester (Skatron, Inc., Sterling, Va.) using glass fiber filter mats (Skatron no. 7034).”

[11] = target: D1 receptor (Homo sapiens, UniProt P21728); conditions: preparations with decreased receptor reserve; cited from earlier work
Chain of D1 receptor (P21728 whole entry): as the sequence (O77680 whole entry) above, with I311N counted along it

For Oc1ccc2c(c1O)Cc1cccc3c1C2CNC3 (racemic) [dinapsoline, (±)-8,9-dihydroxy-2,3,7,11b-tetrahydro-1H-naphtho[1,2,3-de]isoquinoline, reference compound], the “D1:D2 selectivity” value [1] was “five-fold” and the Ki [2] was over 1 µM.
For NC[C@@H]1O[C@H](C23CC4CC(CC(C4)C2)C3)Cc2c1ccc(O)c2O [Example A-77636], the antiparkinsonian effects [3] is listed as “exceptional antiparkinsonian effects”.
For Oc1cc2c(cc1O)[C@H]1c3ccccc3CN[C@@H]1CC2 (racemic) [dihydrexidine, (±)-trans-10,11-dihydroxy-5,6,6a,7,8,12b-hexahydrobenzo[a]phenanthridine], the “agonist intrinsic activity at D1 receptors” value (“agonist intrinsic activity” for short) [4] is given as “full agonist”, the “agonist intrinsic activity” value [5] is given as “full agonist” and the antiparkinsonian effects [3] is given as “exceptional antiparkinsonian effects”. For the same compound, the “activity at D2-like receptors located post-synaptically” value [6] was “agonist” and the “activity at D2-like receptors located pre-synaptically” value [6] was “antagonist”.
In the case of Oc1cc2c(cc1O)C(c1ccccc1)CNCC2 (single isomer, unassigned; (+)) [(+)-SKF 38393, reference compound], the “agonist intrinsic activity” value [4] is reported as “partial agonist” and the “agonist intrinsic activity” value [5] is reported as “partial agonist”.
For Br.Oc1ccc2c(c1O)Oc1cccc3c1C2CNC3 (racemic) [dinoxyline, (±)-8,9-dihydroxy-1,2,3,11b-tetrahydrochromeno[4,3,2-de]isoquinoline hydrobromide], the “agonist intrinsic activity” value ([4]; hydrobromide) was “full agonist activity”, the EC50 ([4]; C-6-mD1 cells, read-out: EC50 in stimulating synthesis of cAMP via D1 receptors) was under 0.03 µM and the “agonist intrinsic activity” value ([5]; hydrobromide) was “full agonist activity”. For the same compound, the EC50 ([5]; rat striatum, read-out: EC50 in stimulating synthesis of cAMP via D1 receptors) was under 0.03 µM, the Ki ([7]; [3H]SCH23390 label, rat striatum, read-out: K0.5 for rat striatal D1 receptors) was under 0.005 µM and the “affinity for dopamine D1 receptors labeled with [3H]SCH23390 (in words)” value ([7]; compared with dihydrexidine) was “high affinity”. The “nH of competition curve” value ([7]; competition at D1 receptors labeled with [3H]SCH23390, shallow curve consistent with agonist properties) was “ca. 0.7”, the “antiparkinson effects (locomotion, arousal, Parkinson signs)” value [8] was “significant antiparkinson effects” and the “D1:D2 selectivity” value [1] was “equally high affinity for both receptors”. For the same compound, the melting point was 298 to 302 °C (dec.), the Ki [2] was under 0.045 µM and the “duration of action relative to a similar dose of dihydrexidine” value ([9]; same route (subcutaneous)) was “more than twice”. For the same compound, the contralateral rotation ([9]; single subcutaneous dose) was “significant rotation” and the “affinity for D2-like receptors (in words)” value [10] was “greater affinity”.
For C=CCN1CCc2c(cc(O)c(O)c2Cl)C(c2ccccc2)C1 (stereo not shown) [SKF82958], the “intrinsic efficacy at D1 receptor” value [11] is listed as “not to have full intrinsic efficacy”.

— patent US6916832B2, “Chromeno[4,3,2-de]isoquinolines as potent dopamine receptor ligands” (University of North Carolina at Chapel Hill, priority 1999, dated 2005)
